# Experimental data taken from patent US20250092044A1, “Kinase Inhibitors” (Incyte Corporation, priority 2023, published 2025).
# How the values were obtained:
# [1] = test system: pSTAT5 in SET-2 cells in whole blood; assay: pSTAT5 SET-2 Whole Blood MSD Assay; assay type: cell-based; settings: Homo sapiens, 2 hour incubation, read-out: SET2 WB IC50
# Description: SET-2 cells shipped from ABS, RPMI1640 medium, Fetal Bovine Serum from Gibco, Phospho-STAT5a,b Whole Cell Lysate Kit from Mesoscale, Retronectin (Recombinant Human Fibronectin Fragment) from TaKaRa, 96 well cell culture plate flat bottom from Corning, lysis buffer from Cell Signaling Technology, and sterile PBS from Gibco. Whole Blood from by BioIVT.
# SET-2 cells were cultured in RPMI media with 20% FBS at 37° C. humidified incubator supplied with 5% CO2. On the day of the assay, 40 uL per well of diluted retronectin working solution was added to sterile 96-well clear flat bottom tissue culture plates (1:200 dilution of retronectin in sterile PBS) and incubated at 37 C for 1 hour. After 1 hour, the retronectin working solution was aspirated and SET-2 cells were seeded at 100,000/well in RPMI+20% FBS. Cells were incubated overnight at 37° C. and 5% CO2. The next day, the medium was removed and 40 μL of diluted compounds in serum-free RPMI and whole blood was added to the cells for a 2 hour incubation at 37° C. and 5% CO2. The compound starting concentration is 20 μM and 2.5 fold serial diluted down to 0.21 nM. The whole blood and compound mixture was then aspirated off using the BlueCat plate washer and washed 1× with PBS. Cells were lysed by adding 40 μL of 3× complete lysis buffer and shaken at room temperature for 45-60 minutes (complete lysis buffer consists of Cell Signaling Technology lysis buffer diluted to 3× and supplemented with Mesoscale's protease inhibitor, phosphatase I inhibitor, and phosphatase II inhibitor). The pSTAT5 MSD plates were blocked by adding 150 μL of Blocker A solution per well to the MSD plates and incubated at room temperature with shaking at 400 rpm for one hour or longer. After blocking, plates were washed 3× with 300 μL/well of 1× Tris Wash Buffer. After lysis, added 25 μL per well of lysed sample was added to MSD plate and incubated with shaking at 4° C. wrapped in foil overnight. The next day, plates were washed again and 25 μL/well of diluted 1× Detection Antibody Solution, wrapped in foil, and incubated at room temperature with shaking at 400 rpm for 1 hour. Plates were then washed again and lastly, 150 μL/well of 1× Read Buffer T was added to all wells. Plates were analyzed on MSD Discovery within 5 minutes. […] Data analysis was performed in GraphPad Prism using a 4-parameter fit and data was reported as Average±SD.
# FLT3 [2] = assay: FLT3 Enzymatic Assay; assay type: biochemical
# Method in brief: (§1)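 Room-temperature HTRF kinase assay (665/620 nm ratio) with 0.011 nM FLT3, 1 mM ATP, 500 nM biotinylated TK substrate in HEPES pH 7.0 buffer with MgCl2 and DTT; 0.5% DMSO final. Read after 60 min incubation; IC50 fitted from percent control activity versus log concentration, no-ATP wells as negative control.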
# FLT3 [3] = molecular target: FLT3 (Homo sapiens (Human), UniProt P36888); assay: FLT3 Enzymatic Assay; assay type: biochemical; settings: 1 mM ATP
# FLT3 (Homo sapiens (Human), UniProt P36888), sequence (P36888 27-993, species assumed): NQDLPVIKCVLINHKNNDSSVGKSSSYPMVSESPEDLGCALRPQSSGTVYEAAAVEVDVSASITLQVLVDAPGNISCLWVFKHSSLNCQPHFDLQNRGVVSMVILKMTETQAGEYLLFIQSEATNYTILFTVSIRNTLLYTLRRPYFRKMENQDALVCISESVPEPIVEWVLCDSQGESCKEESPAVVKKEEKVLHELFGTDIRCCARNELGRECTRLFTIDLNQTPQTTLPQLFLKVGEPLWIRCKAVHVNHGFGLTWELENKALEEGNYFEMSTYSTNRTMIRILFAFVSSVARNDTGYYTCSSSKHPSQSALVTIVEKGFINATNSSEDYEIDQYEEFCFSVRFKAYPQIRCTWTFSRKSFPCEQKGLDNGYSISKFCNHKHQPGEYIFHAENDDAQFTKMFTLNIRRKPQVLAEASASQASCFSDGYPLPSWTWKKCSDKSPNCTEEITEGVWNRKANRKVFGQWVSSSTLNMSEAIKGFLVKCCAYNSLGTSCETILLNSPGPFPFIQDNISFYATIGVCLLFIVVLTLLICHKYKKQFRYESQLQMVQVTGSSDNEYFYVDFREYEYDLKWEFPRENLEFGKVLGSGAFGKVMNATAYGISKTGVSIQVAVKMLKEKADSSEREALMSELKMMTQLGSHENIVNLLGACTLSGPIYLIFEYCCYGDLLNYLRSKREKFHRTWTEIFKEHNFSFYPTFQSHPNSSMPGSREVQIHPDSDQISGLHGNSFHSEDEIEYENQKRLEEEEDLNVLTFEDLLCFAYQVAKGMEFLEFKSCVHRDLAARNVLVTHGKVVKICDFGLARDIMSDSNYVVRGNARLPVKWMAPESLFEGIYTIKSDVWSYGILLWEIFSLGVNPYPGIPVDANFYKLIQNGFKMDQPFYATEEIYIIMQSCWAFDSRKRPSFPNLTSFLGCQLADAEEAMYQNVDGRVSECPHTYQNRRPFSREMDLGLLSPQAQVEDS
# Method in brief: as §1
# [4] = molecular target: catalytic domain (JH1) of human JAK2 (Homo sapiens (Human), UniProt O60674); assay: JAK2 LanthaScreen JH1 Binding Assay; settings: read-out: JH1 Bind IC50
# catalytic domain (JH1) of human JAK2, sequence (O60674 826-1132): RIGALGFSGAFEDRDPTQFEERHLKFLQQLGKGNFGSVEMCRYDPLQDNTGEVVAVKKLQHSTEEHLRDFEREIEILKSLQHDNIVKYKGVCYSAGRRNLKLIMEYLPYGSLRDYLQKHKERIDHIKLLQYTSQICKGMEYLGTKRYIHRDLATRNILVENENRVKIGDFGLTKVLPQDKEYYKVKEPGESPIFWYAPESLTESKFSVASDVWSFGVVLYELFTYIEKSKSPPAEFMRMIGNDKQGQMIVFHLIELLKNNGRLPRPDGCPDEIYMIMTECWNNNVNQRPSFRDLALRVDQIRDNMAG
# Method in brief: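 FLAG-tagged biotinylated JH1 (aa 826-1132, baculovirus-expressed), 1.5 nM, with serially diluted compound, 50 nM fluorescent tracer and 0.5 nM streptavidin-Tb in pH 7.5 Tris buffer, 2 h at 25 °C; nonspecific binding with 2 mM ATP. TR-FRET read, IC50 by four-parameter fit.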
# [5] = test system: STAT5 (Tyr694) phosphorylation in SET-2 cells; assay: STAT5 (Tyr694) Phosphorylation Cell Based Assay; settings: Homo sapiens, 2 hours, read-out: SET2 IC50
# Method in brief: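 SET-2 cells in RPMI with 10% FBS were exposed to compound for 2 h at 37 °C (0.5% DMSO final). After lysis, phospho-STAT5 (Tyr694) was read by HTRF (665/620 ratio) after 24 h antibody incubation at room temperature. IC50 was fitted from percent control activity versus log concentration.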
SMILES,IC50 [1] [nM],Selectivity FLT3/JH2 V617F (FLT3 [2]),IC50 (FLT3 [3]) [nM],IC50 [4] [nM],IC50 [5] [nM]
"COC(=O)N[C@@H]1CC[C@@H](n2c(=O)n(C)c3cnc4[nH]c(-c5ccc(C(=O)N6CCOCC6)c(F)c5)c(-c5ccc6c(cnn6C(C)C)c5)c4c32)C1 [Example 16, Methyl ((1R,3R)-3-(7-(3-fluoro-4-(morpholine-4-carbonyl)phenyl)-8-(1-isopropyl-1H-indazol-5-yl)-3-methyl-2-oxo-3,6-dihydroimidazo[4,5-d]pyrrolo[2,3-b]pyridin-1(2H)-yl)cyclopentyl)carbamate]",2500 to 5000,****** (selectivity of >12500-fold),1250 to 2500,> 1000,≤ 300
"CNC(=O)c1ccc(-c2[nH]c3ncc4c(c3c2-c2ccc3c(cnn3C(C)C)c2)n([C@@H]2CC[C@@H](NC(=O)OC)C2)c(=O)n4C)cc1 [Example 21, Methyl ((1R,3R)-3-(8-(1-isopropyl-1H-indazol-5-yl)-3-methyl-7-(4-(methylcarbamoyl)phenyl)-2-oxo-3,6-dihydroimidazo[4,5-d]pyrrolo[2,3-b]pyridin-1(2H)-yl)cyclopentyl)carbamate]",> 7500,***** (selectivity of >5000-fold to ≤12500-fold),250 to 1250,> 1000,300 to 800
"CCNC(=O)c1ccc(-c2[nH]c3ncc4c(c3c2-c2ccc3c(cnn3C(C)C)c2)n([C@@H]2CC[C@@H](NC(=O)OC)C2)c(=O)n4C)cc1 [Example 23, Methyl ((1R,3R)-3-(7-(4-(ethylcarbamoyl)phenyl)-8-(1-isopropyl-1H-indazol-5-yl)-3-methyl-2-oxo-3,6-dihydroimidazo[4,5-d]pyrrolo[2,3-b]pyridin-1(2H)-yl)cyclopentyl)carbamate]",2500 to 5000,**** (selectivity of >1750-fold to ≤5000-fold),250 to 1250,> 1000,≤ 300
"[2H]C([2H])([2H])N(Cc1ccc(-c2[nH]c3ncc4c(c3c2-c2ccc3c(c2)CC(C)(C)O3)n([C@@H]2CC[C@@H](NC(=O)OC)C2)c(=O)n4C([2H])([2H])[2H])cc1)C([2H])([2H])[2H] [Example 25, Methyl ((1R,3R)-3-(7-(4-((bis(methyl-d3)amino)methyl)phenyl)-8-(2,2-dimethyl-2,3-dihydrobenzofuran-5-yl)-3-(methyl-d3)-2-oxo-3,6-dihydroimidazo[4,5-d]pyrrolo[2,3-b]pyridin-1(2H)-yl)cyclopentyl)carbamate]",≤ 2500,**** (selectivity of >1750-fold to ≤5000-fold),250 to 1250,> 1000,≤ 300
"[2H]C([2H])([2H])n1c(=O)n([C@@H]2CC[C@@H](NC(=O)OC)C2)c2c3c(-c4ccc5c(cnn5C(C)C)c4)c(-c4ccc(CN(C)C)cc4)[nH]c3ncc21 [Example 26, Methyl ((1R,3R)-3-(7-(4-((dimethylamino)methyl)phenyl)-8-(1-isopropyl-1H-indazol-5-yl)-3-(methyl-d3)-2-oxo-3,6-dihydroimidazo[4,5-d]pyrrolo[2,3-b]pyridin-1(2H)-yl)cyclopentyl)carbamate]",≤ 2500,**** (selectivity of >1750-fold to ≤5000-fold),250 to 1250,> 1000,≤ 300
"[2H]C([2H])([2H])N(Cc1ccc(-c2[nH]c3ncc4c(c3c2-c2ccc(OCCOC)cc2)n([C@@H]2CC[C@@H](NC(=O)OC)C2)c(=O)n4C([2H])([2H])[2H])cc1)C([2H])([2H])[2H] [Example 27, Methyl ((1R,3R)-3-(7-(4-((bis(methyl-d3)amino)methyl)phenyl)-8-(4-(2-methoxyethoxy)phenyl)-3-(methyl-d3)-2-oxo-3,6-dihydroimidazo[4,5-d]pyrrolo[2,3-b]pyridin-1(2H)-yl)cyclopentyl)carbamate]",≤ 2500,*** (selectivity of >1500-fold to ≤1750-fold),250 to 1250,> 1000,≤ 300
